Data set [1] deals with OGT in CHO cells. Put plainly: Immunoblotting of global O-GlcNAcylation (RL2) in CHO cells. The class given is cell-based, Chinese hamster. The protocol: (§1) In vivo inhibition of glycosylation: For all immunoblotting experiments, CHO-K1 (CHO) cells were grown in F12-K media supplemented with 10% FBS and antibiotics at 37° C. in a 5% CO2 incubator. Cells were treated by adding indicated inhibitor in DMSO vehicle (0.5% final vehicle concentration) upon reaching 70% confluence. After indicated treatment length, cells were harvested by aspirating growth media and washing with ice cold 1× PBS. Cells were subsequently lysed in boiling 1% SDS/20 mM HEPES 7.9. After cooling to room temperature, 1 mM PMSF, 10 μM PUGNAC, 10 μM TMG and 1× Complete protease inhibitor cocktail were added to the solution. The mixture was sonicated and then subjected to a 5 minute incubation at 95° C. The samples were centrifuged for 15 minutes at 20,000×g and the supernatant was collected and the total protein was measured by BCA assay (BIO-RAD).
(§2) The sample was separated by SDS-PAGE (Bio-Rad 4-15%, Cat: 345-0028), transferred to a nitrocellulose membrane (iBlot, Invitrogen) and probed with the indicated antibody. Tyipcally, membranes were blocked with 4% BSA in 1× TBS+0.04% tween-20 for 1 hour before incubating with antibody (typically diluted 1:1000 in 4% BSA inlx TBS+0.04% tween-20) overnight at 4° C. Membranes were then washed three times with 1× TBS+0.04% tween-20 and incubated with secondary antibody (typically diluted 1:5000 in 4% BSA in 1× TBS+0.04% tween-20) for 1 hour at room temperature. Lastly, membranes were washed 3× with 1× TBS+0.04% tween-20 and imaged with ECL. D283-Med cells were treated as above but grown in F12-K media supplemented with 10% FBS and antibiotics. HEK, HeLa and LNCaP cells were treated as above but grown in RPMI media supplemented with 10% FBS and antibiotics.
In general terms: In western blotting, separated proteins are transferred to a membrane and probed.

The subject of a further data set is LNCaP cells. Put plainly: LNCaP cell viability and c-Myc stability. The format is cell-based, human. The conditions noted are these: 50 μM. The protocol:
as §2
(§3) Cell viability, cytotoxicity and apoptosis signaling assays were performed in a 96-well plate using ApoTox-Glo reagent (Promega) according to the manufacturer's instructions.

A short description of the next data set: Aqueous solubility. The class given is physicochemical.
The test system of the next data set is CHO cells. Kind of data set: ApoTox-Glo cell viability, cytotoxicity and apoptosis signaling assay. The class given is cell-based, Chinese hamster. As for the experimental part: as §3
In data set [2] the test system is OGT in CHO cells. Kind of data set: Markers of OGT inhibition in CHO cells (Nup62 mass shift, OGA levels, H2B-S112 O-GlcNAc). The format is cell-based, Chinese hamster. The protocol:
as §1, §2

Regarding `COc1ccccc1[C@@H](NS(=O)(=O)c1ccc2[nH]c(=O)ccc2c1)C(=O)N(Cc1ccco1)Cc1cccs1` [OSMI-1, (R)—N-(furan-2-ylmethyl)-2-(2-methoxyphenyl)-2-(2-oxo-1,2-dihydroquinoline-6-sulfonamido)-N-(thiophen-2-ylmethyl)acetamide], the “Onset of reduction of global O-GlcNAcylation” value in the data set with OGT in CHO cells [1] (50 μM, 8-hour time course) is “within two hours”. Besides, the “Concentration of maximal reduction of global O-GlcNAcylation” value with OGT in CHO cells [1] (24 hr, 10-100 μM tested) is 50 µM. The LNCaP cell viability entry in the data set with LNCaP cells (48 hrs) is reported as “decrease in cell viability”. Also, the c-Myc stability entry with LNCaP cells (LNCaP cells, 6 and 48 hours) is “decreases c-Myc stability”. The Aqueous solubility result in the data set “Aqueous solubility” is given as “limited aqueous solubility”. The Cytotoxicity entry with CHO cells (50 μM) is “not cytotoxic”. In the data set with CHO cells (50 μM, 24 hours), the “Decrease of cell viability” value is “about 50%”. In the data set with CHO cells (up to 50 μM), the Apoptotic signaling entry was “does not trigger apoptotic signaling”. Moreover, in the data set with OGT in CHO cells [2], the “Cellular OGA levels” value was “reduced cellular OGA”, the Nup62 mass shift result is recorded as “shift to a lower molecular weight” and the “O-GlcNAc modification of histone H2B-S112” value was “greatly reduced”.

The record behind these values is patent US20170166558A1, “O-GLCNAC TRANSFERASE (OGT) INHIBITORS AND USES THEREOF” (President and Fellows of Harvard College, priority 2014, published 2017).
